Measured values from US8653096B2, “Chemokine receptor antagonists and methods of use thereof” (Millennium Pharmaceuticals, Inc., priority 2001, dated 2014).
pIC50: −log10 of the molar value.

molecular target: T1, RANTES/MIP-1α chemokine receptor (CCR1) in THP-1 cell membranes (Homo sapiens, UniProt P32246); experiment: Receptor binding assay: 125I-RANTES or 125I-MIP-1α binding to THP-1 cell membranes; details: inhibitor concentration required for 50% inhibition of specific binding; 125I-RANTES or 125I-MIP-1α as ligand, THP-1 cell membranes; read-out: IC50
T1 construct: Membranes were prepared from THP-1 cells (ATCC #TIB202); host or cells: THP-1 cells (membrane preparation)
T1 sequence (P32246 1-355): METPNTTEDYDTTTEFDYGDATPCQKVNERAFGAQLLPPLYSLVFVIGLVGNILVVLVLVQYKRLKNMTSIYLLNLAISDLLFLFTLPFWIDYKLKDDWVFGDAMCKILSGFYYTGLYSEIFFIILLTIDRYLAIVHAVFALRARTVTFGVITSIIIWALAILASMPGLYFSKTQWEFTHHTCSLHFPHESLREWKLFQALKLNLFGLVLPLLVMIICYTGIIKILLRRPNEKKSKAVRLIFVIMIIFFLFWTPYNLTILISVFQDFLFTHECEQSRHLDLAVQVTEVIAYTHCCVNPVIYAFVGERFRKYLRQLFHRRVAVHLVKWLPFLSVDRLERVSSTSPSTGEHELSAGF

| Compound | pIC50 |
| --- | --- |
| CC(C)N(Cc1ccc(Cl)cc1)C1CCN(CCC=C2c3cc(C(C)(C)O)ccc3OCc3ncccc32)C1 (centres unmarked) [Example 551, 2-[5-(3-{3-[(4-Chloro-benzyl)-isopropyl-amino]-pyrrolidin-1-yl}-propylidene)-5,11-dihydro-10-oxa-1-aza-dibenzo[a,d]cyclohepten-7-yl]-propan-2-ol] | > 6.00 |
| 1-[3-(5,11-Dihydro-7-methoxy[1]benzoxepino[2,3-b]pyridin-5-ylidene)propyl]-4-(2-hydroxyphenyl)piperidine [Example 184] | > 5.00 |
| 1-[3-(7-(2-Carbamoyl)ethyl-5,11-dihydro[1]benzoxepino[2,3-b]pyridin-5-ylidene)propyl]-4-(4-chlorophenyl)-piperidin-4-ol [Example 218] | > 6.00 |
| 4-(4-Chlorophenyl)-1-[3-(7-dimethylaminocarbonylmethyl-5,11-dihydro[1]benzoxepino[2,3-b]pyridin-5-ylidene)propyl]piperidin-4-ol [Example 122] | > 6.00 |
| CC(C)(O)c1ccc2c(c1)C(=CCCN1CCN(c3ccc(Cl)cc3C#N)CC1)c1cccnc1CO2 [Example 540, 5-Chloro-2-(4-{3-[7-(1-hydroxy-1-methyl-ethyl)-11H-10-oxa-1-aza-dibenzo[a,d]cyclohepten-5-ylidene]-propyl}-piperazin-1-yl)-benzonitrile] | > 5.00 |
| CCC1CN(CCC=C2c3cc(C(C)(C)O)ccc3OCc3ncccc32)CCC1(O)c1ccc(Cl)cc1 (centres unmarked) [Example 471, 4-(4-Chloro-phenyl)-3-ethyl-1-{3-[7-(1-hydroxy-1-methyl-ethyl)-11H-10-oxa-1-aza-dibenzo[a,d]cyclohepten-5-ylidene]-propyl}-piperidin-4-ol] | > 6.00 |
| COC(=O)c1ccc2c(c1)C(=CCCN1CCC(O)(c3ccc(Cl)cc3)CC1)c1ccccc1CO2 [Example 22, 4-(4-Chlorophenyl)-1-[3-(6,11-dihydro-2-methoxycarbonyldibenz[b,e]oxepin-11-ylidene)propyl]piperidin-4-ol] | > 6.00 |
| COc1ccc2c(c1)C(=CCN1CCC(O)(c3ccc(Cl)cc3)CC1)c1cccnc1CO2 [Example 57, 4-(4-Chlorophenyl)-1-[3-(5,11-dihydro-7-methoxy[1]benzoxepino [2,3-b]pyridin-5-ylidene)ethyl]piperidin-4-ol] | > 5.00 |
| CCN(Cc1ccc(Cl)cc1)C1CCN(CCC=C2c3cc(C(C)(C)O)ccc3OCc3ncccc32)CC1 [Example 487, 2-[5-(3-{4-[(4-Chloro-benzyl)ethyl-amino]-piperidin-1-yl}-propylidene)-5,11-dihydro-10-oxa-1-aza-dibenzo[a,d]cyclohepten-7-yl]-propan-2-ol] | > 6.00 |
| 4-(4-Chlorophenyl)-1-[3-(5,11-dihydro-7-(2,3-dihydroxy)propyl[1]benzoxepino[2,3-b]pyridin-5-ylidene)propyl]piperidin-4-ol [Example 290] | > 6.00 |
| CN1C(=O)c2ccccc2C(=CCCN2CCC(O)(c3ccc(Cl)cc3)CC2)c2cccnc21 [Example 56, 4-(4-Chlorophenyl)-1-[3-(10,11-dihydro-11-methyl-10-oxo-5H-pyrido[2,3-c][2]benzazepin-5-ylidene)propyl]piperidin-4-ol] | > 6.00 |
| CCC(=O)N(Cc1ccc(Cl)cc1)C1CCN(CCC=C2c3cc(C(C)(C)O)ccc3OCc3ncccc32)C1 (centres unmarked) [Example 563, N-(4-Chloro-benzyl)-N-(1-{3-[7-(1-hydroxy-1-methyl-ethyl)-11H-10-oxa-1-aza-dibenzo[a,d]cyclohepten-5-ylidene]-propyl}-pyrrolidin-3-yl)-propionamide] | > 5.00 |
| COc1ccc2c(c1)C(=CCCN1CCC(O)(c3ccc(Cl)cc3)CC1)c1ccccc1CO2 [Example 33, 4-(4-Chlorophenyl)-1-[3-(6,11-dihydro-2-methoxydibenz[b,e]oxepin-11-ylidene)propyl]piperidin-4-ol] | > 6.00 |
| Nc1ccc2c(c1)C(=CCCN1CCC(O)(c3ccc(Cl)cc3)CC1)c1ccccc1CO2 [Example 31, 1-[3-(2-Amino-6,11-dihydrodibenz[b,e]oxepin-11-ylidene)propyl]-4-(4-chlorophenyl)piperidin-4-ol] | > 6.00 |
